# Literature values as cited in patent publication US9622975B2, “Pharmaceutical composition” (Novartis AG, priority 2005, dated 2017).
# Assays:
# [1] = especially in the alkaline conditions of the intestine
# [2] = in vivo
water solubility [1],absorbed by the gastro-intestinal tract [2],SMILES
very water soluble,–,"O=C(O)CCCCCCCNC(=O)c1cc(Cl)ccc1O [Example 5-CNAC, N-(5-chlorosalicyloyl)-8-aminocaprylic acid]"
very water soluble,–,"O=C(O)CCCCCCCNC(=O)c1ccccc1O [SNAC, N-(8-[2-hydroxybenzoyl]amino) caprylic acid]"
–,greater than 90%,"O=C(O)CCCCCCCCCNC(=O)c1ccccc1O [SNAD, N-(10-[2-hydroxybenzoyl]amino) decanoic acid]"
